Source: publication PMC10102842 (Clinical cancer research : an official journal of the …, 2023)

Biological target: DNA polymerase theta (Polθ) (Homo sapiens, UniProt O75417)
Experiment: Nano-luciferase MMEJ reporter assay in HEK-293 cells
Format: cell-based

Chain of DNA polymerase theta (Polθ) (O75417 whole entry): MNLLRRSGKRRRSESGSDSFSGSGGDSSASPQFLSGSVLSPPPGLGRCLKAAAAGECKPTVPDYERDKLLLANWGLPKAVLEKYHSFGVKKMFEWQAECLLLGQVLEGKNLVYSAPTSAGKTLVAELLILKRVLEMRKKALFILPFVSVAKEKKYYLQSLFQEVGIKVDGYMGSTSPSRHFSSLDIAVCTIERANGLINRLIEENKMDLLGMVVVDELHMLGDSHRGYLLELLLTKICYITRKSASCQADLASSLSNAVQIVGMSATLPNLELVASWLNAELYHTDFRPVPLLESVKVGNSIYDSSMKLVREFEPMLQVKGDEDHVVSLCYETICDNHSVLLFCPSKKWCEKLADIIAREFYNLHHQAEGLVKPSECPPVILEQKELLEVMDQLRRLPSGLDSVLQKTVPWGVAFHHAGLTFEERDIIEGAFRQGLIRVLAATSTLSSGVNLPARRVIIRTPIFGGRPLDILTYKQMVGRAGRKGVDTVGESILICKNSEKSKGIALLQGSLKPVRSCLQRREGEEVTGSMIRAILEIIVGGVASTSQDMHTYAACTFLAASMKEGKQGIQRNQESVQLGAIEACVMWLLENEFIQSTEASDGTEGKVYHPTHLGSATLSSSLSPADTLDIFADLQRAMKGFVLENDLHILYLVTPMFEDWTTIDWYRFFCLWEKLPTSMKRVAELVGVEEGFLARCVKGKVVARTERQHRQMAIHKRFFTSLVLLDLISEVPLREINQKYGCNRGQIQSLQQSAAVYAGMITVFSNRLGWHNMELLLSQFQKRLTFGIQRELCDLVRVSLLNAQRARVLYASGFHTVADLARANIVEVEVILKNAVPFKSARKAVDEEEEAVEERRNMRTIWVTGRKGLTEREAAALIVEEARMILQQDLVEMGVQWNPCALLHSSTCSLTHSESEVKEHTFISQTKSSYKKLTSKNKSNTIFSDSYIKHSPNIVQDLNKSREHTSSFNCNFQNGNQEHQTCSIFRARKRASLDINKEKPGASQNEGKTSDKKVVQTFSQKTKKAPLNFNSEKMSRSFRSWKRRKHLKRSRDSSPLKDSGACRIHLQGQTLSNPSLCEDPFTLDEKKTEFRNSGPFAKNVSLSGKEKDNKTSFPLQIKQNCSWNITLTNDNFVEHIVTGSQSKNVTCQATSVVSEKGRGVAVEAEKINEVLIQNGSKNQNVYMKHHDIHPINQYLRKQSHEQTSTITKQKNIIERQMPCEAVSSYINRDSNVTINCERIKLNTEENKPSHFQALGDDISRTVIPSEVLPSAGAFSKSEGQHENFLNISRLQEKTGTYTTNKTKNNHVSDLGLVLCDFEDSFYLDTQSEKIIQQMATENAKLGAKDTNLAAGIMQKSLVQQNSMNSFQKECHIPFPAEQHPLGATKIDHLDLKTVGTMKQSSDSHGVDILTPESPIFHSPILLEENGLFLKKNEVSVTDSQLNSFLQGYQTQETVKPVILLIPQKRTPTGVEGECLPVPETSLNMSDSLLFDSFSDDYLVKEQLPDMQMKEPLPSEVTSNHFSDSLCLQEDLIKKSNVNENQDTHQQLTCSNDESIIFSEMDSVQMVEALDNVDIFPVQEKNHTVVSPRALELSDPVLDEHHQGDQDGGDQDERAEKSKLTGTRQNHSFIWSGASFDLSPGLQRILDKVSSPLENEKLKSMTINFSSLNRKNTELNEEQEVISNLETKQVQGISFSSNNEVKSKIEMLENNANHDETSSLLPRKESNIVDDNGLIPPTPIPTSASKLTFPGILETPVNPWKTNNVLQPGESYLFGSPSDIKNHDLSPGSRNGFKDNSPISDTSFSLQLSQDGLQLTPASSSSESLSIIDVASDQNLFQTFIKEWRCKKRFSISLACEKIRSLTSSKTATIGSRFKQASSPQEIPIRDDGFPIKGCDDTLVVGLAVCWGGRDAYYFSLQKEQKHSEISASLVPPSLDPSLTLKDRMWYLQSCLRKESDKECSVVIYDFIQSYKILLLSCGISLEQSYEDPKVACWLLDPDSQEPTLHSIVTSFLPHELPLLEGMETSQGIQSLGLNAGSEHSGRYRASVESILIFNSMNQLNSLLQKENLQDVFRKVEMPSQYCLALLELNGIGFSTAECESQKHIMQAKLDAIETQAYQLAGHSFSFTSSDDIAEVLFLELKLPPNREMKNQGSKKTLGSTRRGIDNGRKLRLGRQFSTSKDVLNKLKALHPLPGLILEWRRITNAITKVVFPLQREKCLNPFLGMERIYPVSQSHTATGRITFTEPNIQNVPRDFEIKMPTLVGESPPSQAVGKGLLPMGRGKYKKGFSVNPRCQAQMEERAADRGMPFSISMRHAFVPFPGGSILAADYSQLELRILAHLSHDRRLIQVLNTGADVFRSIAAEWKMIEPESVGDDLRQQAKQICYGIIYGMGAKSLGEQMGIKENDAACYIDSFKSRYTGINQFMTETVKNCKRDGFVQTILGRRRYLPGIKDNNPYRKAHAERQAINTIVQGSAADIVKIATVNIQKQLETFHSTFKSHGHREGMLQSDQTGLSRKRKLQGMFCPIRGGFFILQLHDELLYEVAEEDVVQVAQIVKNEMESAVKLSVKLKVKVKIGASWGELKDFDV

IC50: ~0.18 µM
Substance: ART899
